Reference: ChEMBL document CHEMBL1201862, “PubChem BioAssay data set” (2004)
Values joined by “and” are separate entries in the source; they are usually repeats but may differ in a detail not shown here. Equal values may be shown once.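 How tested: cells in 96-well plates exposed to compound for 48 hours at five concentrations. The concentration for 50% growth inhibition is given as GI50.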 Active and inactive are the calls of the source. No stated cut-off is given here; in the data, active = GI50 up to about 1.1 µM and inactive = higher.

Assays:
Test in all cases: NCI-60 cell line screen, 48 h
BT-549 = tested on: BT-549
COLO 205 = tested on: COLO 205
DU-145 = tested on: DU-145
HOP-62 = tested on: HOP-62
Hs-578T = tested on: Hs-578T
K562 = tested on: K562
M14 = tested on: M14
MCF7 = tested on: MCF7
MDA-N = tested on: MDA-N
Malme-3M = tested on: Malme-3M
NCI-H226 = tested on: NCI-H226
OVCAR-3 = tested on: OVCAR-3
OVCAR-5 = tested on: OVCAR-5
OVCAR-8 = tested on: OVCAR-8
PC-3 = tested on: PC-3
RPMI-8226 = tested on: RPMI-8226
SK-MEL-2 = tested on: SK-MEL-2
SK-OV-3 = tested on: SK-OV-3
SNB-19 = tested on: SNB-19
SR = tested on: SR

Measured: GI50

CC(=O)Oc1c2oc3ccc(Cl)cc3c(=O)c2c(O)c2ccsc12
inactive: BT-549 51.4 µM | COLO 205 > 100 µM | DU-145 > 100 µM | HOP-62 > 100 µM | Hs-578T 33.3 µM | K562 60.7 µM | M14 > 100 µM | MCF7 > 100 µM | MDA-N > 100 µM | Malme-3M > 100 µM | NCI-H226 > 100 µM | OVCAR-3 > 100 µM | OVCAR-5 > 100 µM | OVCAR-8 > 100 µM | PC-3 > 100 µM | RPMI-8226 > 100 µM | SK-MEL-2 > 100 µM | SK-OV-3 > 100 µM | SNB-19 > 100 µM

O=c1c(-c2ccccc2F)coc2cc(F)ccc12
inactive: BT-549 99.1 µM | COLO 205 > 100 µM | DU-145 > 100 µM | HOP-62 > 100 µM | Hs-578T > 100 µM | M14 > 100 µM | MDA-N > 100 µM | NCI-H226 > 100 µM | OVCAR-3 > 100 µM | OVCAR-5 > 100 µM | OVCAR-8 > 100 µM | PC-3 > 100 µM | SK-MEL-2 > 100 µM | SK-OV-3 > 100 µM | SNB-19 > 100 µM

Clc1ccc2c(NCCNc3ccnc4cc(Cl)ccc34)ccnc2c1
inactive: BT-549 19.2 µM | COLO 205 14.6 µM | DU-145 22.8 µM | HOP-62 16.2 µM | Hs-578T 31.9 µM | K562 12.3 µM | M14 16.9 µM | MCF7 19.7 µM | MDA-N 17.1 µM | Malme-3M > 100 µM | NCI-H226 37.9 µM | OVCAR-3 15.1 µM | OVCAR-5 16.5 µM | OVCAR-8 19.7 µM | PC-3 17 µM | RPMI-8226 20.6 µM | SK-MEL-2 18.9 µM | SK-OV-3 17.7 µM | SNB-19 20.1 µM

CC1(C)OC(CCO)CN1C(=O)OCc1ccccc1 (stereo not given)
inactive: BT-549 33.6 µM | COLO 205 > 100 µM | DU-145 > 100 µM | K562 > 100 µM | M14 > 100 µM | MCF7 > 100 µM | MDA-N > 100 µM | Malme-3M > 100 µM | NCI-H226 > 100 µM | OVCAR-3 > 100 µM | OVCAR-5 > 100 µM | OVCAR-8 > 100 µM | PC-3 > 100 µM | RPMI-8226 > 100 µM | SK-MEL-2 > 100 µM | SK-OV-3 > 100 µM | SNB-19 > 100 µM | SR > 100 µM

COc1ccc(C2Oc3c(OC)cc(CCCO)cc3C2CO)cc1OC (stereo not given)
inactive: BT-549 96.2 µM and 50.7 µM | COLO 205 > 100 µM | DU-145 > 100 µM | HOP-62 > 100 µM | Hs-578T > 100 µM | K562 20.6 µM and 38.5 µM | M14 > 100 µM | MCF7 27.6 µM and 44.7 µM | MDA-N 93.1 µM and 71.4 µM | Malme-3M > 100 µM and 50.7 µM | NCI-H226 > 100 µM | OVCAR-3 > 100 µM | OVCAR-5 > 100 µM | OVCAR-8 > 100 µM and 89.3 µM | PC-3 > 100 µM | SK-MEL-2 95.1 µM | SK-OV-3 > 100 µM | SNB-19 > 100 µM

NCCSCc1ccccc1Cl
inactive: BT-549 69.7 µM | DU-145 43 µM | HOP-62 40.6 µM | Hs-578T 73.5 µM | K562 26.9 µM | M14 63.4 µM | MDA-N 30.5 µM | Malme-3M 65.8 µM | NCI-H226 > 100 µM | OVCAR-3 28.9 µM | OVCAR-5 > 100 µM | OVCAR-8 43.3 µM | PC-3 30.3 µM | SK-MEL-2 30.6 µM | SNB-19 80.4 µM | SR 18.6 µM
